One data set relates to THP1 macrophages. Put plainly: qPCR gene expression in THP1 macrophages. The format is cell-based, human. Particulars: 1 μM VT107 vs vehicle. The text has this: To determine if knockdown of TEAD mimicked iTEAD effects, THP1 cells were transduced with shRNAs targeting TEAD 1, 3 and 4 or GFP as a control. Knockdown was confirmed by western blot with a pan TEAD antibody (FIG. 13, Panel A). […] TEAD knockdown in THP1 macrophages decreased protumor inflammatory cytokines CXCL2, 5, and 6 (FIG. 12, Panel C). […] Signaling pathways related to inflammatory diseases, such as rheumatoid arthritis, were decreased (FIG. 12, Panel D), as well as the inflammatory upstream regulators LPS and TNF (FIG. 12, Panel E). The score for M2-like upstream regulators, OSM (Shrivastava et al., 2019) and IL17A (Miller et al., 2020) was decreased by TEAD knockdown yet importantly, IL12 and the immune modulator used to enhance immunotherapy, NC410, scores were increased (Ramos et al., 2021) (FIG. 12, Panel D). Taken together, the response to iTEAD treatment or TEAD knockdown enhanced macrophages interaction with tumor cells and IL12 signaling. The global anti-inflammatory effect and the repression of the M2-like macrophage phenotypes are known to oppose the establishment of a hospitable metastatic niche (McGinnis et al., 2024; Sica et al., 2008; Noy & Pollard, 2014).
Total RNA was extracted from cell lines using a RNeasy Mini Kit (Qiagen, #74104) according to the manufacturer's instructions. cDNA from total RNA was made with the iScript cDNA synthesis kit according to the manufacturer's protocol (Biorad, #170-8891) and qPCR was performed in an iCycler iQ (BioRad) using the iQ SYBR Green Supermix (BioRad, #170-8882).
(In general: Real-time PCR tracks product formation cycle by cycle.)

The subject of another data set is 4T1 cancer cells. Put plainly: Real Time Cell Analysis, cytotoxicity of T-cells +/- macrophages towards 4T1 cells. The format is cell-based, mouse. The text has this:
To investigate whether the effect of iTEAD treatment on macrophages can enhance their crosstalk with T-cells in the lung microenvironment, peritoneal macrophages+/−iTEAD were first isolated and characterized as a model of resident macrophages for ex vivo experiments (FIG. 14, Panel A). It was observed that treatment with VT107 decreased gene expression of M2-like and fibrosis regulators, Aldh1a1 and Cc117 (Chen et al., 2020), as well as TEAD4 and its downstream target gene Ankrd1. […] The iTEAD pretreated peritoneal macrophages and untreated T-cells isolated from the spleen of tumor naïve mice (FIG. 14, Panel A) were then mixed for 5 hours before collecting the conditioned media for analysis. […] Next, these immune cell mixes were added to 4T1 spheres that were embedded into matrix. […] This effect was reversed by an IL12 neutralizing antibody. No change in cleaved caspase-3 in 4T1 cells in the presence of VT107-treated T-cells or macrophages alone, was detected at 24 hours (FIG. 14, Panels C and D). 4T1 cells were then plated and allowed to attach on electrode-coated arrays to monitor cancer cell viability before the addition of macrophages+/−iTEAD and T-cells. […]
Cell analysis was done using E-plates from xCELLigence, (Agilent, #5469830001) according to the manufacturer's protocol. […] Cell index was measured by changes in electric impedance at 15 min intervals. […]

Data set [1] deals with peritoneal macrophages and T-cells. Put plainly: Cytokine array, pretreated peritoneal macrophages mixed with T-cells. The format is cell-based, mouse. The text has this:
To investigate whether the effect of iTEAD treatment on macrophages can enhance their crosstalk with T-cells in the lung microenvironment, peritoneal macrophages+/−iTEAD were first isolated and characterized as a model of resident macrophages for ex vivo experiments (FIG. 14, Panel A). It was observed that treatment with VT107 decreased gene expression of M2-like and fibrosis regulators, Aldh1a1 and Cc117 (Chen et al., 2020), as well as TEAD4 and its downstream target gene Ankrd1. […] The iTEAD pretreated peritoneal macrophages and untreated T-cells isolated from the spleen of tumor naïve mice (FIG. 14, Panel A) were then mixed for 5 hours before collecting the conditioned media for analysis. […] Next, these immune cell mixes were added to 4T1 spheres that were embedded into matrix. […] This effect was reversed by an IL12 neutralizing antibody. No change in cleaved caspase-3 in 4T1 cells in the presence of VT107-treated T-cells or macrophages alone, was detected at 24 hours (FIG. 14, Panels C and D). 4T1 cells were then plated and allowed to attach on electrode-coated arrays to monitor cancer cell viability before the addition of macrophages+/−iTEAD and T-cells. […] This reversal of T-cell cytotoxicity by IL12 antibodies was not observed in VT107-treated T-cells in the absence of macrophages (FIG. 15, Panel E) indicating a critical role for IL12 in the crosstalk between macrophages and T-cells.
Cells were grown in their recommended cell culture media and treated with […] VT107 for 24 or 72 hours. Conditioned media was collected and passed through a 0.2 micron PES filter then analyzed on a RayBio® Mouse Cytokine Array (#AAM-TCR-1) according to the manufacture's protocol. The array includes two spots for each cytokine. The luminescence signal was normalized to the positive control on each membrane, then to the vehicle treatment signal of each cytokine.

Setting [2] is: macrophages pretreated 24 hrs with 1 μM VT107, mixed with untreated T-cells 5 hours.
The mark [3] stands for this setting: treated overnight with 1 μM VT107.

On to VT107, for which, in the data set on THP1 macrophages, the “CD80 gene expression level” value is “increase”; the “IL12 gene expression level” value was “increase”; the “expression of YAP/TEAD target genes CTGF, S100Δ8 and S100Δ9” value is recorded as “downregulated”. In addition, the “expression of YAP/TEAD target genes CTGF, S100Δ8 and S100Δ9” value in the data set with THP1 macrophages (listed as iTEAD) is “decreased expression”. Also, in the data set with 4T1 cancer cells (extended VT107 treatment), the “cytotoxicity of T-cells alone” value is given as “slight increase”. For the same substance, the “T-cells' cytotoxicity towards 4T1 cells” value in the data set on 4T1 cancer cells (macrophages pretreated 24 hrs with 1 μM VT107, compared to T-cells alone) was “significantly increased”. In data set [1] (setting [2]), the “IL6 level in the cell mix” value was “significantly increased” and the “IL12 level in the cell mix” value is on record as “significantly increased”. In addition, in data set [1] (setting [3]), the “IL4 in T-cells” value is “slightly increased” and the “IL12 or IL6 levels in macrophages or T-cells alone” value was “No significant change”.

These data come from patent publication US20250352524A1, “PREVENTION OF METASTATIC OUTGROWTH USING TEAD INHIBITORS” (Georgetown University, priority 2024, published 2025).
